Laboratory results taken from patent US20050014681A1, “Medicinal compositions for nasal absorption” (priority 2001, published 2005).

How the values were obtained:
[1] = Absorbability of powder preparation for nasal administration using dogs (RIA); conditions: beagle, dog, in vivo, 50 ug/kg
Protocol: (§1) An anti-rabbit IgG goat serum was then added, and the mixture was allowed to stand for 1 hour at 4° C. The resulting sample was centrifuged and the radioactivity (gamma-ray) of the precipitate was measured by a gamma counter.
As a control, one additive-free sample of the composition for nasal administration was prepared.

[2] = Absorbability of powder preparation for nasal administration using cynomolgus monkeys, Test-1 (RIA); conditions: cynomolgus monkey, in vivo, sc, 13 ug/kg
Protocol: as §1
Each additive was added to the pharmaceutical composition in amounts of 0.5%, 1.0%, 10% and 50% with respect to the total weight of the preparation.
The bioavailability was determined by comparing the AUC after nasal administration with the AUC after subcutaneous administration.

[3] = in vivo; conditions: male, SD (Crj: CD), rat, plasma
Protocol: as §1
Male SD rats, aged 7 to 9 weeks and weighing about 250 g (Crj: CD, Charles River Japan Inc.,), were kept in a metal cage with a day/night cycle of 12 hours while maintaining the temperature at 22±5° C. and the humidity at 30 to 70%. The rats were allowed to feed freely on solid feed and tap water and were fasted for 24 hours prior to the test (3 animals per group).
[…] The blood was collected into a tube containing anticoagulant and enzyme inhibitor at 0, 5, 10, 15, 20, 30, 60, and 90 minutes after administration and was centrifuged to obtain plasma. […] For subcutaneous administration, the sample solution for subcutaneous administration (about 15 μg/mL) was subcutaneously administered in the back of the rats using a syringe at a dosage of 1 mL/kg.

[4] = test system: blood glucose level; assay: Blood glucose level decreasing effect of nasally administered incretin hormones in glucose-loaded rats; assay type: in vivo; conditions: nasal powder about 100 μg polypeptide, 15 min after dosing, 10 min after 0.5 g/kg i.v. glucose, control 196
Protocol: As for the composition containing incretin hormones, the blood glucose level fell as compared with the control group. Moreover, also the incretin hormones, the blood glucose level fell when composition containing 5% corn starch is added compared with when 5% corn starch is not added.

[5] = background statement; cited from earlier work

CC[C@H](C)[C@H](NC(=O)[C@H](Cc1ccccc1)NC(=O)[C@H](CCC(=O)O)NC(=O)[C@H](CCCCN)NC(=O)[C@H](C)NC(=O)[C@H](C)NC(=O)[C@H](CCC(N)=O)NC(=O)CNC(=O)[C@H](CCC(=O)O)NC(=O)[C@H](CC(C)C)NC(=O)[C@H](Cc1ccc(O)cc1)NC(=O)[C@H](CO)NC(=O)[C@H](CO)NC(=O)[C@@H](NC(=O)[C@H](CC(=O)O)NC(=O)[C@H](CO)NC(=O)[C@@H](NC(=O)[C@H](Cc1ccccc1)NC(=O)[C@@H](NC(=O)CNC(=O)[C@H](CCC(=O)O)NC(=O)[C@H](C)NC(=O)[C@@H](N)Cc1c[nH]cn1)[C@@H](C)O)[C@@H](C)O)C(C)C)C(=O)N[C@@H](C)C(=O)N[C@@H](Cc1c[nH]c2ccccc12)C(=O)N[C@@H](CC(C)C)C(=O)N[C@H](C(=O)N[C@@H](CCCCN)C(=O)NCC(=O)N[C@@H](CCCNC(=N)N)C(N)=O)C(C)C [GLP-1(7-36)NH2, GLP-1 (7-36)NH2]
AUC(0-inf) [1]: 5.15 ± 5.13 ng·h/mL
Cmax [1]: 20.4 ± 3.48 ng/mL
AUC(0-inf) [2]: 3.23 ± 0.5 ng·h/mL
Cmax [2]: 6.37 ± 2.54 ng/mL
AUC ([3]; inhaled or intranasal, 1 ug/kg): 2.47 ± 1.44 ng·h/mL
Cmax ([3]; inhaled or intranasal, 1 ug/kg): 4.7 ± 3.28 ng/mL
AUC ([3]; sc, 15 ug/kg): 3.82 ± 0.58 ng·h/mL
Cmax ([3]; sc, 15 ug/kg): 6.68 ± 0.86 ng/mL

Exendin-4
blood glucose level (Mean) ([4]; composition: 5% corn starch): 151 mg/dL
blood glucose level (Mean) ([4]; composition: No additive): 166 mg/dL

GLP-1 (7-37) [GLP-1(7-37)]
blood glucose level (Mean) ([4]; composition: 5% corn starch): 146 mg/dL
blood glucose level (Mean) ([4]; composition: No additive): 170 mg/dL

[Lys^26, ε-NH{γ-Glu(N-α-palmitoyl)}]-GLP-1 (7-37)
blood glucose level (Mean) ([4]; composition: 5% corn starch): 154 mg/dL
blood glucose level (Mean) ([4]; composition: No additive): 184 mg/dL

[Val^8]-GLP-1 (7-37) (HVEGTFTSDVSSYLEGQAAKEFIAWLVKGRG; Glucagon-like peptide 1(7-37); UniProt P01275 98-128, looked up, variant A8V) [[Val^8]-GLP-1(7-37)]
blood glucose level (Mean) ([4]; composition: 5% corn starch): 147 mg/dL
blood glucose level (Mean) ([4]; composition: No additive): 168 mg/dL

casein
isoelectric point (pI) [5]: about 4.6
